Earlier results on one compound are cited in patent publication US7364905B2, “Apparatus and method for high throughput analysis of compound-membrane interactions” (TechElan, LLC, priority 2001, dated 2008).

The test system of this data set is Caco-2 cells. The conditions noted are these: Caco-2 cell mono-layer versus gut.

Turning to `OC[C@@H](O)[C@@H](O)[C@H](O)[C@H](O)CO` [mannitol], the “rate of permeation through the cell mono-layer relative to through the gut” value is “fifty to three hundred and sixty times lower”.
